Data: ChEMBL document CHEMBL5303304, “EUbOPEN Chemogenomics Library - IncuCyte” (2023)
Numbered stars: 1 amine (or outer) side, 2 acyl side, 3 side chain; on linkers, the order of the positions; unused ones are H or OH. Bridge positions count the residues as written; N and C are the ends. Square brackets hold non-standard residues; d marks the D form. Peptide text beside a SMILES is read from it. I, II: the chains in the order shown. Hexamethylenediamine = C(CCCN[*:2])CCN[*:1]; Dip = N[C@H](C(=O)O)C(c1ccccc1)c1ccccc1; Chg = N[C@H](C(=O)O)C1CCCCC1; NMeA = CN[C@@H](C)C(=O)O

Tests used:
Format in all cases: toxicity, cell-based
HEK-293T = assay: Incucyte cell viability with HEK293T; conditions: human, 10 µM, compound concentration 10 uM
Fibroblast = assay: Incucyte cell viability with human fibroblast; conditions: 10 µM, compound concentration 10 uM
U2OS = assay: Incucyte cell viability with U2OS; conditions: human, 10 µM, compound concentration 10 uM
Note: unitless GR value; below 1 slowed growth and below 0 cell loss.

SMILES	Growth Rate (HEK-293T; 6 h, replicate number 1)	Growth Rate (HEK-293T; 24 h, replicate number 1)	Growth Rate (Fibroblast; 0 h, replicate number 2)	Growth Rate (Fibroblast; 6 h, replicate number 1)	Growth Rate (Fibroblast; 12 h, replicate number 1)	Growth Rate (Fibroblast; 18 h, replicate number 1)	Growth Rate (U2OS; 0 h, replicate number 1)	Growth Rate (U2OS; 6 h, replicate number 2)	Growth Rate (U2OS; 12 h, replicate number 2)	Growth Rate (U2OS; 18 h, replicate number 2)	Growth Rate (HEK-293T; 6 h, replicate number 2)	Growth Rate (HEK-293T; 12 h, replicate number 2)	Growth Rate (HEK-293T; 18 h, replicate number 2)	Growth Rate (Fibroblast; 12 h, replicate number 2)	Growth Rate (Fibroblast; 18 h, replicate number 2)	Growth Rate (U2OS; 6 h, replicate number 1)	Growth Rate (U2OS; 12 h, replicate number 1)	Growth Rate (U2OS; 18 h, replicate number 1)	Growth Rate (U2OS; 24 h, replicate number 1)	Growth Rate (Fibroblast; 24 h, replicate number 1)	also measured
CC(C)Oc1ccc(-c2cnc3c(-c4ccnc5ccccc45)cnn3c2)cc1	-0.63	0.3	-0.98	0.72	-1	0.49	-0.36	0.23	0.74	0.79											Growth Rate (HEK-293T; 0 h, replicate number 2): 0.99; Growth Rate (HEK-293T; 12 h, replicate number 1): -0.46; Growth Rate (HEK-293T; 18 h, replicate number 1): -0.07; Growth Rate (U2OS; 24 h, replicate number 2): 0.97
C[C@H](CCC(=O)O)[C@H]1CC[C@H]2[C@@H]3CC[C@@H]4C[C@H](O)CC[C@]4(C)[C@H]3CC[C@]12C [LITHOCHOLIC ACID]			0.27				-0.56				0.73	0.67	0.77	0.76	0.87	0.93	0.68	0.74	0.83		Growth Rate (HEK-293T; 0 h, replicate number 1): 0.14; Growth Rate (Fibroblast; 24 h, replicate number 2): 0.89
CN(C)CCOc1ccc(/C(=C(/CCCO)c2ccccc2)c2ccc(O)cc2)cc1			-0.4								0.71					0.76		1		0.02	Growth Rate (Fibroblast; 0 h, replicate number 1): 0.55; Growth Rate (U2OS; 0 h, replicate number 2): -0.67
Cc1cc2c(-c3ccco3)cnc(N[C@H]3CCN(C)C[C@@H]3C(=O)NC3CCCCC3)c2[nH]c1=O [GSK791]				0.66	0.82		-0.05										-0.81				Growth Rate (HEK-293T; 0 h, replicate number 2): -0.74; Growth Rate (Fibroblast; 6 h, replicate number 2): 0.72
Cc1n[nH]c2ncc(C(=O)N3CCC[C@H]3c3ccc(Cl)cc3)cc12		1		0.75		0.66					0.58	0.96	1	0.76	0.99	0.34	0.67	0.94	0.91	0.73	Growth Rate (HEK-293T; 0 h, replicate number 1): 0.29; Growth Rate (HEK-293T; 24 h, replicate number 2): 0.89; Growth Rate (Fibroblast; 24 h, replicate number 2): 0.92
CN(CCCCCCC1=C(c2cc(F)cc(F)c2)CCCc2cc(O)ccc21)CCCCS(=O)(=O)CCCC(F)(F)F	-0.95	-0.1		-0.99	-0.97	-0.89	-1	-0.93	-0.68	-0.58	-0.98	-0.83	-0.52		-0.88	-0.96	-0.94	-0.87	-0.72	-0.77	Growth Rate (HEK-293T; 12 h, replicate number 1): -0.48; Growth Rate (HEK-293T; 18 h, replicate number 1): -0.16; Growth Rate (HEK-293T; 24 h, replicate number 2): -0.38; Growth Rate (Fibroblast; 0 h, replicate number 1): -1; Growth Rate (Fibroblast; 6 h, replicate number 2): -1; Growth Rate (Fibroblast; 24 h, replicate number 2): -0.65; Growth Rate (U2OS; 0 h, replicate number 2): -0.54; Growth Rate (U2OS; 24 h, replicate number 2): -0.49
CCN(C)S(=O)(=O)Nc1cccc(-c2ccc3c(NC(=O)C4CC4)n[nH]c3c2)c1	-0.21	0		-0.58	-0.17	-0.01		-0.06	0.08	0.1	-0.69	-0.46	-0.33	-0.25	-0.16	-0.66	-0.32	-0.12	0.11	0.13	Growth Rate (HEK-293T; 12 h, replicate number 1): -0.1; Growth Rate (HEK-293T; 18 h, replicate number 1): -0.03; Growth Rate (HEK-293T; 24 h, replicate number 2): -0.21; Growth Rate (Fibroblast; 6 h, replicate number 2): -0.37; Growth Rate (Fibroblast; 24 h, replicate number 2): -0.03; Growth Rate (U2OS; 0 h, replicate number 2): -0.42; Growth Rate (U2OS; 24 h, replicate number 2): 0.17
COc1cc(C(C)C)c(Oc2cnc(NC(CO)CO)nc2N)cc1I			0.81	-0.93					1		0.97	0.76	0.82	0.88	0.94	0.05	0.93	0.97	0.83	1	Growth Rate (HEK-293T; 0 h, replicate number 2): 0.85; Growth Rate (HEK-293T; 24 h, replicate number 2): 0.89; Growth Rate (Fibroblast; 6 h, replicate number 2): 0.67; Growth Rate (U2OS; 0 h, replicate number 2): -0.32
COc1cc(NC(=O)c2ccc(-c3ccc(Cl)cc3)o2)cc(OC)c1	0.31					0.5	0.66	0.2	0.72	0.89				0.03	0.54				0.98		Growth Rate (HEK-293T; 0 h, replicate number 2): 0.52; Growth Rate (Fibroblast; 0 h, replicate number 1): 0.51; Growth Rate (Fibroblast; 6 h, replicate number 2): -1; Growth Rate (Fibroblast; 24 h, replicate number 2): 0.45; Growth Rate (U2OS; 24 h, replicate number 2): 0.79
CN[C@@H](C)C(=O)N[C@H](C(=O)N1CCC[C@H]1C(=O)N[C@H](C(=O)NCCCCCCNC(=O)[C@@H](NC(=O)[C@@H]1CCCN1C(=O)[C@@H](NC(=O)[C@H](C)NC)C1CCCCC1)C(c1ccccc1)c1ccccc1)C(c1ccccc1)c1ccccc1)C1CCCCC1 (I: H-[NMeA][Chg]P[Dip] / II: H-[NMeA][Chg]P[Dip]; linker I:C-II:C via Hexamethylenediamine)	-0.33	-0.23	-0.82		0.82	0.47		-0.46	-0.63	-0.21	-0.41	-0.4	-0.31	0.74	0.49	-0.4	-0.41	-0.25	-0.22	0.5	Growth Rate (HEK-293T; 12 h, replicate number 1): -0.42; Growth Rate (HEK-293T; 18 h, replicate number 1): -0.3; Growth Rate (HEK-293T; 24 h, replicate number 2): -0.25; Growth Rate (Fibroblast; 24 h, replicate number 2): 0.33; Growth Rate (U2OS; 0 h, replicate number 2): -0.47; Growth Rate (U2OS; 24 h, replicate number 2): -0.21
S=c1[nH]nc(-c2cccs2)n1-c1ccccc1	0.53	0.9	-0.79		-0.72	-0.25	0.53	0.93	0.8	0.87	0.97	0.73	0.87					0.95		0.01	Growth Rate (HEK-293T; 0 h, replicate number 2): 0.81; Growth Rate (HEK-293T; 12 h, replicate number 1): 0.58; Growth Rate (HEK-293T; 18 h, replicate number 1): 0.91; Growth Rate (HEK-293T; 24 h, replicate number 2): 0.83; Growth Rate (Fibroblast; 0 h, replicate number 1): 0.04; Growth Rate (Fibroblast; 6 h, replicate number 2): -0.3
